Experimental data taken from US7056884B2, “Reduced FK228 and use thereof” (Astellas Pharma Inc., priority 2000, dated 2006).

Tested on: Mouse histone deacetylase
Assay: Assay of histone deacetylase activity ([3H] acetylated histone, crude histone deacetylase from FM3A cells)
Format: biochemical
Settings: crude histone deacetylase fraction from FM3A cells, [3H] acetylated histone substrate, 37° C. for 10 min
Procedure: The histone deacetylase inhibitory activity of the FR135313 substance synthesized in Production Example 1 was examined.
Mouse breast cancer FM3A was supplied by Dr. Dai Ayusawa of Medical Department, Yokohama City University. This cell was subcultured in an ES medium containing 2% FBS (Flow Laboratories, hereinafter to be referred to as ES medium) at 37° C., in 5% CO2.
The [^3H] acetylated histone to be the substrate of histone deacetylase was prepared by culturing 1×10^8 cells of FM3A cell (suspended in 50 ml of ES medium) in the presence of 0.5 mCi/ml [^3H] sodium acetate and 5 mM sodium butyrate at 37° C. in 5% CO2 for 30 min, and immediately extracting histone fraction from the treated cells according to the following method. The specific radioactivity was 0.45 μCi/mg histone.
Extraction of histone protein from culture cell was conducted according to the method of Yoshida et al. (M. Yoshida et al., J. Biol. Chem. 265, 17174–17179 (1990)). […]
4 μl of [^3H] acetylated histone (2500 cpm/5 μg) and 96 μl of crude histone deacetylase fraction were admixed. […] The reaction was terminated by the addition of 10 μl of concentrated hydrochloric acid, and released [^3H] acetic acid was extracted with 1 ml of ethyl acetate, from which 0.9 ml was added to 5 ml of toluene scintillation solution and the radioactivity was measured.

For `C/C=C1\NC(=O)[C@@H](CS)NC(=O)[C@@H](C(C)C)NC(=O)C[C@@H](/C=C/CCS)OC(=O)[C@H](C(C)C)NC1=O` [FR135313 substance], the “histone deacetylase inhibitory activity IC50” value was “not more than 1 ng/ml”.
